Source: patent US10597388B2, “Pyridazinone herbicides” (FMC CORPORATION, priority 2014, dated 2020)

Experiments:
Experiment in all cases: Test C greenhouse herbicide test, pre- and postemergence
Assay type in all cases: in vivo
[1] = tested on: barnyardgrass (Echinochloa crus-galli)
Outline: (§1)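 Two application timings: at sowing into a soil/sand blend, and on 2–18 cm seedlings in peat-vermiculite potting mix. A non-phytotoxic, surfactant-containing solvent carried the compounds. Plants were compared with controls and rated visually on 0–100 after 13–15 d.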

[2] = tested on: ragweed (common ragweed, Ambrosia elatior)
Outline: as §1

[3] = tested on: blackgrass (Alopecurus myosuroides)
Outline: as §1

[4] = tested on: velvetleaf (Abutilon theophrasti)
Outline: as §1

[5] = tested on: lambsquarters (Chenopodium album)
Outline: as §1

[6] = tested on: galium (catchweed bedstraw, Galium aparine)
Outline: as §1

[7] = tested on: crabgrass, large (large crabgrass, Digitaria sanguinalis)
Outline: as §1

[8] = tested on: ryegrass, Italian (Italian ryegrass, Lolium multiflorum)
Outline: as §1

[9] = tested on: waterhemp (common waterhemp, Amaranthus rudis)
Outline: as §1

[10] = tested on: oilseed rape (Brassica napus)
Outline: as §1

[11] = tested on: foxtail, giant (giant foxtail, Setaria faberii)
Outline: as §1

[12] = tested on: morningglory (Ipomoea coccinea)
Outline: as §1

[13] = tested on: johnsongrass (Sorghum halepense)
Outline: as §1

[14] = tested on: corn (Zea mays)
Outline: as §1

[15] = tested on: pigweed (Amaranthus retroflexus)
Outline: as §1

[16] = tested on: nutsedge, yellow (yellow nutsedge, Cyperus esculentus)
Outline: as §1

[17] = Postemergence, 31 g ai/ha, scale 0 to 100 (0 no effect, 100 complete control)
[18] = Postemergence, 125 g ai/ha, scale 0 to 100, 0 is no effect, 100 is complete control
[19] = Postemergence, 250 g ai/ha, scale 0 to 100, 0 no effect, 100 complete control, 13 to 15 d
[20] = Preemergence, 31 g ai/ha, scale 0 to 100, 0 is no effect, 100 is complete control
[21] = Preemergence, 62 g ai/ha, scale 0 to 100, 0 is no effect, 100 is complete control
[22] = Preemergence, 125 g ai/ha, scale 0 to 100, 0 is no effect, 100 is complete control
[23] = Preemergence, 250 g ai/ha, scale 0 to 100 (0 no effect, 100 complete control)
[24] = postemergence, 62 g ai/ha, scale 0 to 100, 0 no effect, 100 complete control

SMILES: CCC(=O)Oc1c(C)nn(C)c(=O)c1-c1c(C)sc2ccc(Cl)cc12 [Compound 109]
- Plant response rating, Barnyardgrass [1, 17]: 25
- Plant response rating, Barnyardgrass [1, 18]: 55
- Plant response rating, Barnyardgrass [1, 19]: 65
- Plant response rating, Barnyardgrass [1, 20]: 10
- Plant response rating, Barnyardgrass [1, 21]: 35
- Plant response rating, Barnyardgrass [1, 22]: 70
- Barnyardgrass plant response rating [1, 23]: 80
- Barnyardgrass plant response rating [1, 24]: 30
- Plant response rating, Ragweed [2, 17]: 80
- Plant response rating, Ragweed [2, 18]: 100
- Plant response rating, Ragweed [2, 19]: 100
- Plant response rating, Ragweed [2, 20]: 95
- Plant response rating, Ragweed [2, 21]: 90
- Plant response rating, Ragweed [2, 22]: 95
- Ragweed plant response rating [2, 23]: 100
- Plant response rating, Blackgrass [3, 17]: 20
- Plant response rating, Blackgrass [3, 18]: 50
- Plant response rating, Blackgrass [3, 19]: 80
- Plant response rating, Blackgrass [3, 20]: 35
- Plant response rating, Blackgrass [3, 21]: 30
- Plant response rating, Blackgrass [3, 22]: 85
- Blackgrass plant response rating [3, 23]: 90
- Blackgrass plant response rating [3, 24]: 25
- Plant response rating, Velvetleaf [4, 17]: 75
- Plant response rating, Velvetleaf [4, 18]: 98
- Plant response rating, Velvetleaf [4, 19]: 100
- Plant response rating, Velvetleaf [4, 20]: 60
- Plant response rating, Velvetleaf [4, 21]: 75
- Plant response rating, Velvetleaf [4, 22]: 80
- Velvetleaf plant response rating [4, 23]: 90
- Plant response rating, Lambsquarters [5, 17]: 95
- Plant response rating, Lambsquarters [5, 18]: 100
- Plant response rating, Lambsquarters [5, 19]: 100
- Plant response rating, Lambsquarters [5, 20]: 80
- Plant response rating, Lambsquarters [5, 21]: 90
- Plant response rating, Lambsquarters [5, 22]: 90
- Lambsquarters plant response rating [5, 23]: 100
- Plant response rating, Galium [6, 17]: 98
- Plant response rating, Galium [6, 18]: 100
- Plant response rating, Galium [6, 19]: 100
- Plant response rating, Galium [6, 20]: 90
- Plant response rating, Galium [6, 21]: 90
- Plant response rating, Galium [6, 22]: 90
- Galium plant response rating [6, 23]: 90
- Plant response rating, Crabgrass, Large [7, 17]: 35
- Plant response rating, Crabgrass, Large [7, 18]: 60
- Plant response rating, Crabgrass, Large [7, 19]: 60
- Plant response rating, Crabgrass, Large [7, 20]: 40
- Plant response rating, Crabgrass, Large [7, 21]: 65
- Plant response rating, Crabgrass, Large [7, 22]: 70
- Crabgrass, Large plant response rating [7, 23]: 80
- Crabgrass, Large plant response rating [7, 24]: 40
- Plant response rating, Ryegrass, Italian [8, 17]: 90
- Plant response rating, Ryegrass, Italian [8, 18]: 90
- Plant response rating, Ryegrass, Italian [8, 19]: 90
- Plant response rating, Ryegrass, Italian [8, 20]: 70
- Plant response rating, Ryegrass, Italian [8, 21]: 90
- Plant response rating, Ryegrass, Italian [8, 22]: 90
- Ryegrass, Italian plant response rating [8, 23]: 95
- Plant response rating, Waterhemp [9, 17]: 80
- Plant response rating, Waterhemp [9, 18]: 90
- Plant response rating, Waterhemp [9, 19]: 100
- Plant response rating, Waterhemp [9, 20]: 80
- Plant response rating, Waterhemp [9, 21]: 90
- Plant response rating, Waterhemp [9, 22]: 100
- Waterhemp plant response rating [9, 23]: 100
- Plant response rating, Oilseed Rape [10, 17]: 70
- Plant response rating, Oilseed Rape [10, 18]: 95
- Plant response rating, Oilseed Rape [10, 19]: 95
- Plant response rating, Oilseed Rape [10, 20]: 5
- Plant response rating, Oilseed Rape [10, 21]: 85
- Plant response rating, Oilseed Rape [10, 22]: 85
- Oilseed Rape plant response rating [10, 23]: 90
- Plant response rating, Foxtail, Giant [11, 17]: 45
- Plant response rating, Foxtail, Giant [11, 18]: 80
- Plant response rating, Foxtail, Giant [11, 19]: 85
- Plant response rating, Foxtail, Giant [11, 20]: 65
- Plant response rating, Foxtail, Giant [11, 21]: 85
- Plant response rating, Foxtail, Giant [11, 22]: 85
- Foxtail, Giant plant response rating [11, 23]: 90
- Plant response rating, Morningglory [12, 17]: 95
- Plant response rating, Morningglory [12, 18]: 100
- Plant response rating, Morningglory [12, 19]: 100
- Plant response rating, Morningglory [12, 20]: 85
- Plant response rating, Morningglory [12, 21]: 85
- Plant response rating, Morningglory [12, 22]: 90
- Morningglory plant response rating [12, 23]: 98
- Plant response rating, Johnsongrass [13, 17]: 0
- Plant response rating, Johnsongrass [13, 18]: 5
- Plant response rating, Johnsongrass [13, 19]: 5
- Plant response rating, Johnsongrass [13, 20]: 0
- Plant response rating, Johnsongrass [13, 21]: 30
- Plant response rating, Johnsongrass [13, 22]: 40
- Johnsongrass plant response rating [13, 23]: 65
- Plant response rating, Corn [14, 17]: 0
- Plant response rating, Corn [14, 18]: 35
- Plant response rating, Corn [14, 19]: 50
- Plant response rating, Corn [14, 20]: 5
- Plant response rating, Corn [14, 21]: 0
- Plant response rating, Corn [14, 22]: 0
- Corn plant response rating [14, 23]: 0
- Corn plant response rating [14, 24]: 15
- Plant response rating, Pigweed [15, 17]: 95
- Plant response rating, Pigweed [15, 18]: 100
- Plant response rating, Pigweed [15, 19]: 100
- Plant response rating, Pigweed [15, 20]: 100
- Plant response rating, Pigweed [15, 21]: 100
- Plant response rating, Pigweed [15, 22]: 100
- Pigweed plant response rating [15, 23]: 100
- Plant response rating, Nutsedge, Yellow [16, 17]: 45
- Plant response rating, Nutsedge, Yellow [16, 18]: 80
- Plant response rating, Nutsedge, Yellow [16, 19]: 80
- Plant response rating, Nutsedge, Yellow [16, 20]: 40
- Plant response rating, Nutsedge, Yellow [16, 21]: 70
- Plant response rating, Nutsedge, Yellow [16, 22]: 90
- Nutsedge, Yellow plant response rating [16, 23]: 80
